The values below come from patent publication US20050288369A1, “Novel n-hydroxy thiourea, urea and amide compounds and the pharmaceutical compositions comprising the same” (priority 2002, published 2005).

Experiment [1] addresses T1, vanilloid receptor-1 (VR1) (Rattus norvegicus, UniProt O35433).
T1 construct: expressed in transfected cells; host or cells: Chinese Hamster Ovary cells (CHO, ATCC CCL-61), Tet-off inducible expression
The experiment is described as follows: [3H]RTX competition binding assay, VR1-expressing CHO cells. The note with it: displacement of bound [3H]RTX; mean±SEM, 3 experiments. As to the method: The binding affinity activity of the target compounds for vanilloid receptor-1 was measured by an in vitro receptor binding affinity assay. In the receptor binding assay, the compounds were evaluated for their ability to displace bound [^3H]RTX from the receptor. The results are expressed in terms of Ki values (mean±SEM, 3 experiments) which represent the concentration of the non-radioactive ligand that displaces half of the bound labeled RTX.
The VR receptor binding affinity activity of the inventive compounds was measured by using Chinese Hamster Ovary (CHO, ATCC, No. CCL-61) cell whose cDNA of VR1 (pUHG102 VR1 plasmid) was transfected, which can control the expression of VR1 according to the presence of tetracycline and Tetracycline on/off system (pTet off regulatory plasmid, Clontech. Inc., USA) that the expression of VR1 is induced by removing tetracycline from the medium. […] The cells were cultured after removing tetracycline prior to 48 hours. The tetracycline free culture medium was seeded at the bottom of T75 flask, incubated to the extent that its density reaches at 90%, and washed once with PBS buffer solution. The cells were collected by using saline solution containing 5 mM EDTA and subjected to centrifugation slightly to obtain precipitates, further, which had been kept at the temperature of −20° C. before use.
Experiments were designed to assess inhibition of specific [^3H]RTX binding to membranes by non-radioactive compounds. The binding assay mixture containing [^3H]RTX ([…]), various concentrations of competitive binding substances, 0.25 mg/ml of BSA (Cohn fraction V), 5×10^4 ˜5×10^5 numbers of VR1 and the expression cell, was admixed with saline solution containing 450 μl of Ca^2+ and Mg^2+ and […] of BSA. Non-specific binding assay was measured after mixing 100 nM of non-radioactive RTX thereto. The reaction mixture was treated for 60 min at 37° C. and the reaction was quenched by cooling over ice. RTX bound to the membrane of VR1 was subjected to centrifugation with maximum velocity for 15 minutes to precipitate its membrane residue, which results in separating from non-binding RTX. The tips of tube containing above precipitate was cut off and the amount of bound radioisotope was determined by scintillation counter (LS6500, Beckman-Coulter, USA). The measurement of binding was determined in triplicate in each experiment, and each experiment was repeated at least two times. Binding data were analyzed by fitting to the Hill equation and the Ki (equilibrium binding parameter) index, the Bmax (maximum binding parameter) index, and the cooperativity index etc., were determined by using origin 6.0 program (Origin, MicroCal Co., USA).
An initial compound was dissolved in DMSO (dimethyl sulfoxide) and diluted with saline solution containing Ca^2+ and […], and […] of BSA.

Experiment [2] concerns the target T2, VR1 (Rattus norvegicus, UniProt O35433).
T2 construct: expressed in transfected cells; host or cells: Chinese Hamster Ovary cells (CHO, ATCC CCL-61), Tet-off inducible expression
As to the kind of experiment: 45Ca influx test in CHO cells expressing VR1, antagonistic activity against 50 nM capsaicin. The note with it: 45Ca uptake stimulated with 50 nM capsaicin. Format: cell-based. As to the method:
(§1) The ^45Ca Influx test by using CHO cells of the inventive compounds was measured by using Chinese Hamster Ovary (CHO, ATCC, No. CCL-61) cell whose cDNA of VR1 (pUHG102 VR1 plasmid) was transfected, which can control the expression of VR1 according to the presence of tetracycline and Tetracycline on/off system (pTet off regulatory plasmid, Clontech. Inc., USA) that the expression of VR1 is induced by removing tetracycline from the medium.
(§2) The CHO cells were poured onto 24 well plates to the extent that its density reaches at 30% and incubated for 24 hours at 37° C. The culture medium was exchanged to tetracycline free medium to induce the expression of VR1 and tested after 36 hours.
(§3) Together with 0.25 mg/ml BSA (Sigma A2153, USA), 1 Ci/ml ^45Ca(5-30 Ci/g used, ICN. Co., 62005 RT, U.S.A.), the test samples with increasing concentrations were added to each well. At the quenching moment of the incubation with ^45Ca, the cultured cells were removed from the medium, washed three times with cool PBS buffer solution containing 1.8 mM CaCl2 and 400 μl of RIPA buffer solution (50 mM Tris pH 7.4; 150 mM sodium chloride; 0.1% SDS; 1% sodium deoxycholate), was added in each well to homogenize the cells. The plates were stirred for 20 minutes slowly and 300 μl of cell lysate was transferred to scintillation vials from each wells. The radioactivity was determined by scintillation counter.
(§4) The data were assessed by determining four wells per each data point in each experiment and analyzed in computer by being transformed into Hill equation. The experiments were determined in triplicate in each sample comprising inventive compounds and control groups.
In order to determine the antagonistic activity, ^45Ca^2+-uptake stimulating-mixture was added with 50 nM capsaicin and the antagonistic activity was determined by the method for the agonistic activity. In case that 10 μM a certain compound cannot change the capsaicin-inducing activity, the compound shall be regarded as an […].

Experiment [3] addresses T2, VR1. The experiment is described as follows: 45Ca influx test in CHO cells expressing VR1, agonistic activity. Format: cell-based. The note with it: 45Ca uptake. The method, then:
The ^45Ca Influx test by using CHO cells expressing VR1 was performed by the procedure described in the literature (Lee, J. W., Bioorganic & Medicinal Chemistry, pp 1713-1720, 2001).
as §1, §2
as §3, with “In radioactive ^45Ca uptake experiment, The cells were incubated in […] of DMEM medium (Dulbecco's modified Eagles medium: Gibco-BRL, 31600-083) containing free of serum and 1.8 mM CaCl2 for 10 minutes at 37*C. Together” for “Together”
as §4

Another experiment relates to Male ICR mice. The experiment is described as follows: Acetic acid-induced writhing test. The class given is in vivo. The note with it: Mus musculus, ip; i.p. 30 mins before 1.2% acetic acid i.p.; 50% reduction of the number of writhes. As to the method: The acetic acid-induced writhing test for testing the analgesic activity of inventive compounds prepared from above Examples was performed by the procedure described in the literature (Lee, J. W., Bioorganic & Medicinal Chemistry, pp 1713-1720, 2001).
Male ICR mice having its mean body weight of 25 g (CD-1; Biogenomics Co. Korea) were reared in lighting controlled environment (12 hrs on/12 hrs off) maintaining with temperatures at 22±2° C. and humidity at 50±5% and allowed to eat a diet and to drink tap water ad lib.
Mice were fasted overnight prior to testing and adopted to the environment.
0.3 ml of acetic acid solution (1.2%) was administrated in the mice intraperitoneally and then the mice were put into the transparent acryl box (15×15×15 cm). 5 minutes later, the number of abdominal constrictions was counted for 20 minutes. Each group consisting of ten mice was pretreated with test compounds or solvent (0.2 ml, i.p.) 30 mins before the injection of acetic acid. Test compounds were dissolved in the mixture of ethanol/Tween-80/saline ([…]) or cremophor EL/DMSO/d-water ([…]).
Analgesic activity of each drug was determined at several different concentrations.
The index of analgesic activity (eff) was defined as below Empirical formula 1. Analgesic activity (eff)=100−{(No. of abdominal constriction of test group/No. of abdominal constriction of control group)×100} [Empirical formula 1]
Analgesic activity was expressed as the reduction in the number of abdominal constrictions, of control animals (vehicle-pretreated mice) and animals pretreated with test compounds.
In general terms: Writhing tests count abdominal constrictions after an irritant is injected.

T1 sequence (O35433 whole entry): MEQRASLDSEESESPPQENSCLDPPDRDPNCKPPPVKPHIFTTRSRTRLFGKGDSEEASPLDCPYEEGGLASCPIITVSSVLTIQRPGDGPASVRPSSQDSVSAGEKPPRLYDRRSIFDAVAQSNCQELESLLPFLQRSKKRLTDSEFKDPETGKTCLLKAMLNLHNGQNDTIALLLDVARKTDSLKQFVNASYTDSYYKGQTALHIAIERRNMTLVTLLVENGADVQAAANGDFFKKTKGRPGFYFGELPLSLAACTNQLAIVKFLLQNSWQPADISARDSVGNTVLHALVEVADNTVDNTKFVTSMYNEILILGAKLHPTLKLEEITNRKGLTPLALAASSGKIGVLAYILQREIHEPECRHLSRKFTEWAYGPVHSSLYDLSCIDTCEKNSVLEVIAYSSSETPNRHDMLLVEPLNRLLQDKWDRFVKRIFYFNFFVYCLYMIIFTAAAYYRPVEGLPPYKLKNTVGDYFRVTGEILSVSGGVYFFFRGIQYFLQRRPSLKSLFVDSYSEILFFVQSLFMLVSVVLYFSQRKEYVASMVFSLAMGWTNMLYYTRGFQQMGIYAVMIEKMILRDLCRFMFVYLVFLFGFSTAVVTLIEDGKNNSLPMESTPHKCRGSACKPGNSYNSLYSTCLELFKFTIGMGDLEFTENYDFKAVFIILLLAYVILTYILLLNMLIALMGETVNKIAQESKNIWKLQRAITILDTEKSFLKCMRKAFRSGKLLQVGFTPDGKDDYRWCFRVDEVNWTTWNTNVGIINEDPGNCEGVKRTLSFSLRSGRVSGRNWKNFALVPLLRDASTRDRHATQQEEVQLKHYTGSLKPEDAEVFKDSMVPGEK
T2 sequence (O35433 whole entry): as above

What is called Ki is the equilibrium dissociation constant of an inhibitor or competing ligand from its target. On to `CC(C)(C)C(=O)OCC(Cc1ccc(C(C)(C)C)cc1)CN(O)C(=S)NCc1ccc(NS(C)(=O)=O)c(F)c1` (stereo not drawn) [Compound 41, N-[2-(4-tert-butylbenzyl)-3-(pivaloyloxy)propyl]-N-hydroxy-N-[3-fluoro-4-(methylsulfonylamino)benzyl]thiourea], for which, in experiment [1], the Ki came out at 405 nM. For the same molecule, at VR1 [2], the “IC50 (nM) (VR1/CHO)” value is listed as “Weak”. The “EC50 (nM) (VR1/CHO)” value on VR1 [3] is on record as “Weak”.

Broadly, the ED50 is the dose that gives a 50% effect, or the effect in half of the subjects. Higher therefore signals a need for a large dose. For `O=C(c1ccccc1)c1ccc2n1CCC2C(=O)O` (stereo not drawn) [Ketorolac, reference compound], the ED50 in the experiment with Male ICR mice amounted to 2820 µg/kg.

Take `CC(C)(C)C(=O)OCC(Cc1ccc(C(C)(C)C)cc1)CN(O)C(=S)NCc1ccc(NS(C)(=O)=O)cc1` (stereo not drawn) [Compound 40, N-[2-(4-tert-butylbenzyl)-3-(pivaloyloxy)propyl]-N-hydroxy-N-[4-(methylsulfonylamino)benzyl]thiourea]: the Ki in experiment [1] was 536 nM. At VR1 [3], the “EC50 (nM) (VR1/CHO)” value was “weak”.

The IC50 is the concentration at which inhibition is half-maximal. Low readings indicate inhibition by little substance, high ones a need for much substance. `Cc1ccc(CC(COC(=O)C(C)(C)C)CN(O)C(=S)NCc2ccc(NS(C)(=O)=O)cc2Cl)cc1C` (stereo not drawn) [Compound 39, N-[2-(3,4-dimethylbenzyl)-3-(pivaloyloxy)propyl]-N-hydroxy-N-[2-chloro-4-(methylsulfonylamino)benzyl]thiourea]: in experiment [1], the affinity corresponds to a Ki of 221 nM. Further, it took 757 nM to reach half-maximal inhibition at VR1 [2] (IC50).

`Cc1ccc(CC(CNC(=S)NCc2ccc(NS(C)(=O)=O)c(F)c2)COC(=O)C(C)(C)C)cc1C` (stereo not drawn) [JYL-1433, reference compound] came in with an ED50 in the experiment on Male ICR mice of 7.43 µg/kg.

For the molecule `CC(C)(C)c1ccc(CN(O)C(=S)NCc2ccc(NS(C)(=O)=O)c([N+](=O)[O-])c2)cc1` [Compound 32, N-(4-tert-butylbenzyl)-N-hydroxy-N-[4-(methylsulfonylamino)-3-nitrobenzyl]thiourea], on VR1 [2], the IC50 worked out at 635 nM.

Usually EC50 stands for the concentration that produces a half-maximal response. A low value points to greater potency. In experiment [1], `COc1cc(CNC(=S)N(O)CC(COC(=O)C(C)(C)C)Cc2ccc(C)c(C)c2)ccc1NS(C)(=O)=O` (stereo not drawn) [Compound 36, N-[2-(3,4-dimethylbenzyl)-3-(pivaloyloxy)propyl]-N-hydroxy-N-[3-methoxy-4-(methylsulfonylamino)benzyl]thiourea] came in with a Ki of 396 nM. The same molecule showed an EC50 on VR1 [3] of 809 nM.

In experiment [1], `CC(C)(C)c1ccc(CC(=O)N(O)Cc2ccc(NS(C)(=O)=O)cc2)cc1` [Compound 63, N-hydroxy-N-[4-(methylsulfonylamino)benzyl]-2-(4-tert-butylphenyl)acetamide] registered a Ki of 5310 nM. In addition, it took 1960 nM to reach a half-maximal effect on VR1 [3] (EC50).

In experiment [1], `CC(C)(C)c1ccc(CN(O)C(=S)NCc2ccc(NS(C)(=O)=O)cc2Cl)cc1` [Compound 34, N-(4-tert-butylbenzyl)-N-hydroxy-N-[2-chloro-4-(methylsulfonylamino)benzyl]thiourea] displayed a Ki of 2270 nM.

`Cc1ccc(CC(COC(=O)C(C)(C)C)CN(O)C(=S)NCc2ccc(NS(C)(=O)=O)cc2F)cc1C` (stereo not drawn) [Compound 38, N-[2-(3,4-dimethylbenzyl)-3-(pivaloyloxy)propyl]-N-hydroxy-N-[2-fluoro-4-(methylsulfonylamino)benzyl]thiourea] displayed an EC50 at VR1 [3] of 1350 nM.

The molecule `CC(C)(C)c1ccc(CN(O)C(=S)NCc2ccc(NS(C)(=O)=O)cc2F)cc1` [Compound 33, N-(4-tert-butylbenzyl)-N-hydroxy-N-[2-fluoro-4-(methylsulfonylamino)benzyl]thiourea] showed a Ki in experiment [1] of 1920 nM. Also, a half-maximal response at VR1 [3] (EC50) required 12300 nM.

In the experiment with Male ICR mice, `Cc1ccc(CC(CNC(=S)NCc2ccc(NS(C)(=O)=O)cc2)COC(=O)C(C)(C)C)cc1C` (stereo not drawn) [JYL-827, reference compound] had an ED50 of 2.62 µg/kg.

With `Cc1ccc(CC(CNC(=S)N(O)Cc2ccc(NS(C)(=O)=O)c(F)c2)COC(=O)C(C)(C)C)cc1C` (stereo not drawn) [Compound 64, N-[2-(3,4-dimethylbenzyl)-3-(pivaloyloxy)propyl]-N-hydroxy-N-[3-fluoro-4-(methylsulfonylamino)benzyl]thiourea], in experiment [1], the Ki came out at 546 nM. The “EC50 (nM) (VR1/CHO)” value at VR1 [3] is “Weak”.

Take `CC(C)(C)c1ccc(CNC(=S)NCc2ccc(NS(C)(=O)=O)c(F)c2)cc1` [SC-0030, reference compound]: in the experiment on Male ICR mice, it took a dose of 1.26 µg/kg to reach the 50% effect level (ED50).

Take `CC(C)(C)c1ccc(CN(O)C(=S)NCc2ccc(NS(C)(=O)=O)c(Cl)c2)cc1` [Compound 31, N-(4-tert-butylbenzyl)-N-hydroxy-N-[3-chloro-4-(methylsulfonylamino)benzyl]thiourea]: the Ki in experiment [1] came to 1310 nM. Also, on VR1 [2], the IC50 stood at 579 nM.

In turn, `Oc1cc2c(cc1O)CN(C(=S)NCCc1ccc(Cl)cc1)CCC2` [Capsazepine, reference compound] came in with a Ki in experiment [1] of 1350 nM. The same molecule gave an IC50 at VR1 [2] of 520 nM.

In the experiment on Male ICR mice, `CC(C)(C)c1ccc(CNC(=S)NCc2ccc(NS(C)(=O)=O)cc2)cc1` [KJM-429, reference compound] gave an ED50 of 1410 µg/kg.
